Data taken from patent US20180346502A1, “Processes for the Preparation of SGLT-2 Inhibitors, Intermediates Thereof” (Emmennar Pharma Private Limited, priority 2017, published 2018).

Experiment: Storage stability of amorphous empagliflozin at 5±3°C (HPLC chemical purity, PXRD)
Assay type: physicochemical
Conditions: for Chemical Purity (HPLC) / PXRD: Temp = 5 ± 3° C.
Procedure: • (a) (1S)-1,5-anhydro-1-C-[4-chloro-3-[[4-[[(3S)-tetrahydro-3-furanyl]oxy]phenyl]methyl]phenyl]-D-glucitol, i.e., empagliflozin (amorphous) • Apparatus: A liquid chromatographic system is to be equipped with variable • wavelength UV-Detector and Integrator. • Column: Promosil C18, 250×4.6 mm, 100 A°, 5 μm or equivalent • Column Temperature: 40° C. • Wavelength: 225 nm • Flow rate: 1.2 mL/min • Injection volume: 5 μL • Run Time: 60 min • Elution: Gradient • Diluent: Acetonitrile: Water (50:50 v/v) • Mobile phase A: Buffer solution • Mobile phase B: Acetonitrile: Water (95:5 v/v) • Buffer solution: Transfer accurately about 1 mL of ortho phosphoric acid into 1000 mL of milli-Q water, filter through 0.45 μm nylon membrane and sonicate to degas. • (b) Amorphous solid dispersion of empagliflozin and ethyl cellulose (EC) • Chromatographic conditions are same as given under (a). • (c) Amorphous solid dispersion of empagliflozin and hydroxypropyl cellulose (HPC) • Chromatographic conditions are same as given under (a), except for: • Wavelength: 220 nm • Column temperature: 35° C. • Mobile Phase B: Acetonitrile: Water (90:10 v/v) • (d) (1S)-1,5-anhydro-1-C-[4-chloro-3-[(4-ethoxyphenyl)methyl] phenyl]-D-glucitol i.e., dapagliflozin • Chromatographic conditions are same as given under (a), except for: • Column temperature: 35° C. • Run Time: 55 min • Mobile Phase B: Acetonitrile: Water (90:10 v/v)
The diffraction patterns were measured using Bruker D2 PHASER diffractometer equipped with LYNXEYE™ detector, used radiation Cu Kα (λ=1.54060 Å), excitation voltage: 30 kV, anode current: 10 mA, measured range: 3-40° 2θ, increment: 0.01° 2θ.

OC[C@H]1O[C@@H](c2ccc(Cl)c(Cc3ccc(O[C@H]4CCOC4)cc3)c2)[C@H](O)[C@@H](O)[C@@H]1O [Empagliflozin, (1S)-1,5-anhydro-1-C-[4-chloro-3-[[4-[[(3S)-tetrahydro-3-furanyl]oxy]phenyl]methyl]phenyl]-D-glucitol]
Chemical Purity (HPLC) (Stability period 1 month): 99.90
PXRD (Stability period 1 month): Amorphous
Chemical Purity (HPLC) (Stability period 3 months): 99.88
PXRD (Stability period 3 months): Amorphous
Chemical Purity (HPLC) (Stability period 6 months): 99.89
PXRD (Stability period 6 months): Amorphous
Chemical Purity (HPLC) (Stability period 12 months): 99.88
PXRD (Stability period 12 months): Amorphous
Chemical Purity (HPLC) (Stability period Initial): 99.88
PXRD (Stability period Initial): Amorphous
stable on storage (period) (storage at 5±3° C.): 12 months
